Where a name gives a salt, the structure may show the parent alone. Read-outs that look alike come from different tables or passages of the source.
Columns and labels:
[1] = Enterolignans and conjugates in plasma and milk of sheep fed flaxseed-enriched diets (UPLC-QTOF-MS); assay type: in vivo; settings: qualitative
Experimental: Eighteen lactating […] (3-4 months in lactation and weighing 66-105 kg) were used and milked twice daily. The animals were parasite-free, and drinking water was available ad libitum. The experimental design was performed with animals stratified according to milk production and number of days post-partum, and then randomly distributed in the experimental groups. The animals were divided into 3 diet groups of 6 animals each. One group of sheep was fed a standard diet, a second group was fed a lignan-enriched diet containing 10% whole flaxseed (Nutricor SL, Leon, Spain) for 2 weeks, and a third group was fed a lignan-enriched diet containing 15% whole flaxseed (Nutricor SL) also for 2 weeks (diet composition is shown in Table 1). Flaxseed amounts and duration of treatment were chosen based on previous studies on cows. Whole flaxseed composition included 20.2% of crude protein, 13.1% of crude fiber and 28.5% of ether extract. All sheep were fed ad libitum twice per day after each milking (09.00 and 18.00 h). Feed intake was not affected by the different experimental diets. […] [29]. The dry residue was dissolved in methanol and filtered (0.22 μm) prior to injection into the ultra-performance liquid chromatography quadrupole time-of-flight mass spectrometry (UPLC-QTOF-MS) equipment. Analyses were developed using an Agilent 1290 Infinity LC system coupled to a 6550 Accurate-Mass QTOF (Agilent Technologies, Waldbronn, Germany) and using an electrospray interface (Jet Stream Technology). Analytical conditions were as previously described with some modifications. Briefly, 5 μL of sample was injected onto a reverse phase Poroshell 120 EC-C18 column (3 × 100 mm, 2.7 μm) (Agilent Technologies) operating at 30 °C. […] The electrospray interface parameters were as follows: gas temperature, 280 °C; drying gas flow, 9 L/min; nebulizer pressure, 35 psi; sheath gas temperature, 400 °C; sheath gas flow, 12 L/min. Spectra were acquired in the m/z range from 100 to 1100 in negative mode and fragmentor voltage was 100 V. Data were processed using Mass Hunter Qualitative Analysis software (version B.06.00 Agilent Technologies). A target screening strategy was applied to plasma and milk samples for the qualitative screening of possible enterolignan-related metabolites. A list of target compounds (60 possible metabolites) covering different phase I and phase II metabolites of parent compound and microbial metabolites was sought in all the samples after MS full-acquisition. Screening was based on mass filtering at the exact mass of the studied compound using narrow mass extraction windows (0.01 m/z). Identification was possible from the valuable information given in QTOF-MS acquisition mode which provides possible molecular formulae for the compounds based on accurate mass and isotopic pattern (Table 2). Additionally, a targeted MS/MS experiment offered fragmentation information for greater reliability in the compound identification process. When possible, direct comparison with authentic standards was performed. Quantification of enterolactone and enterodiol was determined by interpolation in the calibration curve obtained from their own available standards. These metabolites were quantified in MS by peak area integration of their extracted ion chromatograms. Calibration curves were linear from the limit of quantification (LOQ) to 500 nmol/L. […] In the case of conjugated metabolites accurate quantification was not possible due to the absence of available standards and so only qualitative results are provided.

[2] = Plasma pharmacokinetics of danofloxacin after i.m. administration to lactating sheep fed control or flaxseed-enriched diets; assay type: in vivo; settings: female, Assaf, im, 1.25 mg/kg, 1.25 mg/kg i.m., mean ± SD; for AUC(0-inf) / Cmax / MRT / Tmax: n = 6; for AUC(0-t): n = 6, read-out: AUC 0–24
Experimental: (§1) Eighteen lactating […] (3-4 months in lactation and weighing 66-105 kg) were used and milked twice daily. The animals were parasite-free, and drinking water was available ad libitum. The experimental design was performed with animals stratified according to milk production and number of days post-partum, and then randomly distributed in the experimental groups. The animals were divided into 3 diet groups of 6 animals each. One group of sheep was fed a standard diet, a second group was fed a lignan-enriched diet containing 10% whole flaxseed (Nutricor SL, Leon, Spain) for 2 weeks, and a third group was fed a lignan-enriched diet containing 15% whole flaxseed (Nutricor SL) also for 2 weeks (diet composition is shown in Table 1). Flaxseed amounts and duration of treatment were chosen based on previous studies on cows. Whole flaxseed composition included 20.2% of crude protein, 13.1% of crude fiber and 28.5% of ether extract. All sheep were fed ad libitum twice per day after each milking (09.00 and 18.00 h). Feed intake was not affected by the different experimental diets. After 2 weeks on the experimental diets, animals in all groups received a single therapeutic dose (1.25 mg/kg, i.m.) of danofloxacin (Advocin 2.5%, Pfizer, Cedex, France). Blood samples (5 mL) were collected from the jugular vein in commercial blood collection tubes (Vacutainer, 10 mL; […] The pharmacokinetic schedule was based on previous studies from our group. […] A complete evacuation of the udder was carried out at each sampling to avoid any dilution effect. Samples were stored at - 20 °C until analysis. Conditions for HPLC analysis of danofloxacin concentrations in plasma and milk were modified according to previously published methods. […] To each 100 μL aliquot of sample, 600 μL of chloroform was added. […] The residue was reconstituted in 100 μL of methanol and injected into the HPLC system. The system consisted of a Waters 600 pump, a Waters 717 plus autosampler, and a Waters 486 fluorescence detector (Waters Corporation, Milford, MA). […] The mobile phase consisted of 25 mM orthophosphoric acid supplemented with 0.1% triethylamine (pH 3.0): acetonitrile (80:20 v/v) at a flow rate of 1.6 mL/min. Sample detection was performed by fluorescence detection at 338 nm (excitation) and 425 nm (emission). Integration was carried out using MILLENNIUM 32 software (Waters). […] Correlation coefficients (r) for danofloxacin ranged between 0.998 and 0.984 for the calibration curves in plasma and milk curves respectively. LOQ were 1.9 ng/mL for sheep plasma and 19 ng/mL for sheep milk. Peak concentration (Cmax) and time-peak concentrations (Tmax) were read from the plotted concentration-time curve for each animal. The area under the plasma concentration-time curves (AUC) was calculated using the linear trapezoidal rule. Mean residence time (MRT) was calculated by the linear trapezoidal rule with extrapolation to time infinity, using the formula: MRT = AUMC/AUC, where AUMC is the mean area under the first moment curve. These calculations were made with a computer program (PK solution 2.0, Summit Research Services, Ashland, OH) and determined by non-compartmental analyses.

[3] = Milk pharmacokinetics (secretion into milk) of danofloxacin after i.m. administration to lactating sheep fed control or flaxseed-enriched diets; assay type: in vivo; settings: 1.25 mg/kg i.m.; for Kp / AUC(0-t) / AUC(0-inf) / Cmax / MRT / Tmax: female, Assaf, sheep, 1.25 mg/kg, mean ± SD, n = 6; for Kp: milk and plasma, intramuscular, read-out: AUC 0–24 milk/plasma; for AUC(0-t) / AUC(0-inf) / Cmax / MRT / Tmax: milk, im; for AUC(0-t): read-out: AUC 0–24
Experimental: as §1

[4] = effect of isoflavones present in soy; cited from earlier work
[5] = sheep fed flaxseed-enriched diets vs. control diet

Compound: Enterolactone-glucuronide
- Localization (matrix in which the compound was identified) [1]: Plasma

Compound: Enterolactone-sulfate
- Localization (matrix in which the compound was identified) [1]: Plasma

Compound: O=C1OC[C@H](Cc2cccc(O)c2)[C@H]1Cc1cccc(O)c1 [Enterolactone]
- Localization (matrix in which the compound was identified) [1]: Plasma, milk

Compound: O=S(=O)(O)Oc1cccc(C[C@@H](CO)[C@H](CO)Cc2cccc(O)c2)c1 [Enterodiol- sulfate]
- Localization (matrix in which the compound was identified) [1]: Plasma

Compound: OC[C@H](Cc1cccc(O)c1)[C@H](CO)Cc1cccc(O)c1 [Enterodiol]
- Localization (matrix in which the compound was identified) [1]: Plasma, milk

Compound: O=C(O)[C@H]1O[C@@H](Oc2cccc(C[C@@H](CO)[C@H](CO)Cc3cccc(O)c3)c2)[C@H](O)[C@@H](O)[C@@H]1O [Enterodiol- glucuronide]
- Localization (matrix in which the compound was identified) [1]: Plasma

Compound: CN1C[C@@H]2C[C@H]1CN2c1cc2c(cc1F)c(=O)c(C(=O)O)cn2C1CC1 [danofloxacin]
- AUC(0-inf) ([2]; control diet): 1.75 ± 0.38 µg·h/mL
- Cmax ([2]; control diet): 0.31 ± 0.05 µg/mL
- MRT ([2]; control diet): 4.22 ± 0.73 h
- Tmax ([2]; control diet): 1.5 ± 0.5 h
- AUC(0-t) ([2]; control diet): 1.74 ± 0.37 µg·h/mL
- AUC(0-inf) ([2]; flaxseed 10% diet): 1.93 ± 0.25 µg·h/mL
- Cmax ([2]; flaxseed 10% diet): 0.31 ± 0.06 µg/mL
- MRT ([2]; flaxseed 10% diet): 4.77 ± 0.49 h
- Tmax ([2]; flaxseed 10% diet): 1.5 ± 0.5 h
- AUC(0-t) ([2]; flaxseed 10% diet): 1.92 ± 0.26 µg·h/mL
- AUC(0-inf) ([2]; flaxseed 15% diet): 1.81 ± 0.15 µg·h/mL
- Cmax ([2]; flaxseed 15% diet): 0.3 ± 0.04 µg/mL
- MRT ([2]; flaxseed 15% diet): 4.95 ± 0.39 h
- Tmax ([2]; flaxseed 15% diet): 1.16 ± 0.37 h
- AUC(0-t) ([2]; flaxseed 15% diet): 1.79 ± 0.15 µg·h/mL
- Kp ([3]; control diet): 11 ± 1.95
- Kp ([3]; flaxseed 10% diet): 7.81 ± 2.08
- Kp ([3]; flaxseed 15% diet): 7.57 ± 2.1
- AUC(0-t) ([3]; control diet): 19.2 ± 5.03 µg·h/mL
- AUC(0-t) ([3]; flaxseed 10% diet): 14.6 ± 1.79 µg·h/mL
- AUC(0-t) ([3]; flaxseed 15% diet): 13.4 ± 3.07 µg·h/mL
- AUC(0-inf) ([3]; control diet): 19.4 ± 5.12 µg·h/mL
- Cmax ([3]; control diet): 2.95 ± 0.74 µg/mL
- MRT ([3]; control diet): 5.35 ± 0.87 h
- Tmax ([3]; control diet): 2.66 ± 0.94 h
- AUC(0-inf) ([3]; flaxseed 10% diet): 14.9 ± 1.86 µg·h/mL
- Cmax ([3]; flaxseed 10% diet): 2.2 ± 0.35 µg/mL
- MRT ([3]; flaxseed 10% diet): 5.25 ± 0.35 h
- Tmax ([3]; flaxseed 10% diet): 3 ± 1 h
- AUC(0-inf) ([3]; flaxseed 15% diet): 13.7 ± 3.13 µg·h/mL
- Cmax ([3]; flaxseed 15% diet): 1.84 ± 0.44 µg/mL
- MRT ([3]; flaxseed 15% diet): 5.54 ± 0.29 h
- Tmax ([3]; flaxseed 15% diet): 2.66 ± 0.94 h
- Reduction of milk Cmax ([3]; group fed 15% flaxseed vs. control group): ~40%
- Reduction of secretion into milk / milk residue ([3]; sheep fed flaxseed diet vs. control): 25–30%
- Reduction of AUC0–24 milk-to-plasma ratio [3, 5]: 25–30%
- Reduction of milk AUC0–24 [3, 5]: 25–30%
- Reduction of milk Cmax [3, 5]: 25–30%
- Reduction of danofloxacin residue in ovine milk [4]: 50%

Reference: article PMC5769330, “Flaxseed-enriched diets change milk concentration of the antimicrobial danofloxacin in sheep” (BMC Veterinary Research, 2018)
